Data from the supplement of paper PMC3770661.
± gives the uncertainty stated by the source.

Test system: HepG2 (L1.3 5'UTR promoter firefly luciferase reporter)
Assay: L1 promoter activity (FLuc/RLuc) relative to DMSO vehicle control (% of control); higher = stronger L1 promoter activation
Method: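 HepG2 cells in 96-well plates were cotransfected with pGL4.11-L1.3 5'UTR (firefly luciferase driven by the human L1.3 5'UTR promoter) and pGL4.74 (HSV-TK Renilla luciferase internal control), then treated with compound for 6 or 24 h. FLuc/RLuc ratio was normalised to the DMSO vehicle control (% of control); concentrations where RLuc fell below 50% of control were excluded (N.D.). Mean of at least two independent experiments in duplicate or quadruplicate.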

[1] = concentration (uM unless unit written): 200, treatment time: 6 h
[2] = concentration (uM unless unit written): 200, treatment time: 24 h
[3] = concentration (uM unless unit written): 1, treatment time: 6 h
[4] = concentration (uM unless unit written): 1, treatment time: 24 h
[5] = concentration (uM unless unit written): 10, treatment time: 6 h
[6] = concentration (uM unless unit written): 10, treatment time: 24 h
[7] = concentration (uM unless unit written): 50, treatment time: 6 h
[8] = concentration (uM unless unit written): 50, treatment time: 24 h
[9] = concentration (uM unless unit written): 250, treatment time: 6 h
[10] = concentration (uM unless unit written): 100, treatment time: 6 h
[11] = concentration (uM unless unit written): 100, treatment time: 24 h
[12] = concentration (uM unless unit written): 500, treatment time: 6 h
[13] = concentration (uM unless unit written): 1000, treatment time: 6 h
[14] = concentration (uM unless unit written): 500, treatment time: 24 h

Cc1cccc(Nc2cc(Cl)nc(SCC(=O)O)n2)c1C
L1 promoter activity [1]: 98.9 ± 11 | L1 promoter activity [2]: 82.7 ± 5.2

CC[C@H]1/C=C/C=C/C[C@@H](C)[C@H](O)[C@@](C)(O)C(=O)[C@@H](C)[C@H](O)[C@@H](C)C(=O)[C@@H](C)[C@H](O)[C@@H](C)/C=C/C(=O)O[C@@H]2[C@H](C)[C@H](CC1)O[C@]1(CC[C@H](C)[C@H](C[C@@H](C)O)O1)[C@H]2C [Oligomycin]
L1 promoter activity (concentration (uM unless unit written): 0.75, treatment time: 6 h): 89.6 ± 5.8 | L1 promoter activity (concentration (uM unless unit written): 0.75, treatment time: 24 h): 82.1 ± 19 | L1 promoter activity (concentration (uM unless unit written): 1.5, treatment time: 6 h): 82.5 ± 15 | L1 promoter activity (concentration (uM unless unit written): 1.5, treatment time: 24 h): 77.2 ± 1.9

NC(=O)CI [Iodoacetamide]
L1 promoter activity (concentration (uM unless unit written): 0.1, treatment time: 6 h): 97.4 ± 9 | L1 promoter activity (concentration (uM unless unit written): 0.1, treatment time: 24 h): 103 ± 11 | L1 promoter activity [3]: 101 ± 13 | L1 promoter activity [4]: 106 ± 16 | L1 promoter activity (concentration (uM unless unit written): 5, treatment time: 6 h): 117 ± 23 | L1 promoter activity [5]: 130 ± 27

CCOC(=O)C1=C(COCCN)NC(C)=C(C(=O)OC)C1c1ccccc1Cl (centres undefined) [Amlodipine besylate]
L1 promoter activity (concentration (uM unless unit written): 0.5, treatment time: 6 h): 93.6 ± 11 | L1 promoter activity (concentration (uM unless unit written): 0.5, treatment time: 24 h): 105 ± 8.9 | L1 promoter activity [3]: 104 ± 10 | L1 promoter activity [4]: 101 ± 22 | L1 promoter activity (concentration (uM unless unit written): 2, treatment time: 6 h): 95.7 ± 7.8 | L1 promoter activity (concentration (uM unless unit written): 2, treatment time: 24 h): 107 ± 12 | L1 promoter activity [5]: 85.2 ± 8.2

COc1cc([C@@H]2c3cc4c(cc3[C@@H](O[C@@H]3O[C@@H]5CO[C@@H](C)O[C@H]5[C@H](O)[C@H]3O)[C@H]3COC(=O)[C@H]23)OCO4)cc(OC)c1O [Etoposide]
L1 promoter activity [5]: 90.4 ± 7.5 | L1 promoter activity [6]: 95.7 ± 4.1 | L1 promoter activity (concentration (uM unless unit written): 25, treatment time: 6 h): 100 ± 30 | L1 promoter activity (concentration (uM unless unit written): 25, treatment time: 24 h): 108 ± 16 | L1 promoter activity [7]: 98.6 ± 21 | L1 promoter activity [8]: 138 ± 70

Cc1c2oc3c(C)ccc(C(=O)N[C@@H]4C(=O)N[C@H](C(C)C)C(=O)N5CCC[C@H]5C(=O)N(C)CC(=O)N(C)[C@@H](C(C)C)C(=O)O[C@@H]4C)c3nc-2c(C(=O)N[C@@H]2C(=O)N[C@H](C(C)C)C(=O)N3CCC[C@H]3C(=O)N(C)CC(=O)N(C)[C@@H](C(C)C)C(=O)O[C@@H]2C)c(N)c1=O [Actinomycin D]
L1 promoter activity (concentration (uM unless unit written): 0.0025, treatment time: 6 h): 132 ± 34 | L1 promoter activity (concentration (uM unless unit written): 0.005, treatment time: 6 h): 112 ± 12 | L1 promoter activity (concentration (uM unless unit written): 0.01, treatment time: 6 h): 110 ± 36 | L1 promoter activity (concentration (uM unless unit written): 0.01, treatment time: 24 h): 144 ± 19

O=C(O)c1cc(-c2ccc(F)cc2F)ccc1O [Diflunisal]
L1 promoter activity (concentration (uM unless unit written): 62.5, treatment time: 6 h): 148 ± 6.5 | L1 promoter activity (concentration (uM unless unit written): 62.5, treatment time: 24 h): 117 ± 8.5 | L1 promoter activity (concentration (uM unless unit written): 125, treatment time: 6 h): 136 ± 12 | L1 promoter activity (concentration (uM unless unit written): 125, treatment time: 24 h): 156 ± 4.7 | L1 promoter activity [9]: 159 ± 21

O=C1NC(=S)NC(=O)C1C(=O)Nc1ccccc1 [Merbarone]
L1 promoter activity [3]: 112 ± 12 | L1 promoter activity [4]: 113 ± 13 | L1 promoter activity [5]: 140 ± 17 | L1 promoter activity [6]: 147 ± 17 | L1 promoter activity [7]: 171 ± 27 | L1 promoter activity [8]: 219 ± 30 | L1 promoter activity [10]: 182 ± 16 | L1 promoter activity [11]: 198 ± 32

NC(=O)c1ccccc1O [Salicylamide]
L1 promoter activity (concentration (uM unless unit written): 1250, treatment time: 6 h): 146 ± 22 | L1 promoter activity (concentration (uM unless unit written): 1250, treatment time: 24 h): 175 ± 16 | L1 promoter activity (concentration (uM unless unit written): 2500, treatment time: 6 h): 139 ± 9.1 | L1 promoter activity (concentration (uM unless unit written): 5000, treatment time: 6 h): 151 ± 25

Cc1cccc(Nc2ccccc2C(=O)O)c1C [Mefenamic acid]
L1 promoter activity [7]: 128 ± 8.3 | L1 promoter activity [8]: 91 ± 5.5 | L1 promoter activity [12]: 113 ± 19 | L1 promoter activity [13]: 93.8 ± 13

O=C(O)c1nn(Cc2ccc(Cl)cc2Cl)c2ccccc12 [Lonidamine]
L1 promoter activity [7]: 105 ± 12 | L1 promoter activity [8]: 93 ± 8 | L1 promoter activity [10]: 87.9 ± 6.3 | L1 promoter activity [11]: 105 ± 9.1 | L1 promoter activity [1]: 99.9 ± 25 | L1 promoter activity [2]: 91.6 ± 9.5

CS(=O)(=O)OCCCCOS(C)(=O)=O [Busulfan]
L1 promoter activity [10]: 111 ± 33 | L1 promoter activity [9]: 119 ± 29 | L1 promoter activity [12]: 131 ± 39 | L1 promoter activity [14]: 122 ± 39

CC(C)=CC(=O)C=C(C)C [Phorone]
L1 promoter activity [12]: 131 ± 16 | L1 promoter activity [14]: 118 ± 21 | L1 promoter activity [13]: 131 ± 6.7 | L1 promoter activity (concentration (uM unless unit written): 1000, treatment time: 24 h): 118 ± 23
